Series [1] addresses T1, Dld (Cg1027), quinone-dependent D-lactate dehydrogenase (Corynebacterium glutamicum, UniProt Q8NRY8).
T1 construct: PCR fragment printed as 1,020 bp but gene coordinates 955683-957398 imply 571 residues; reverse primer dld2 lacks stop codon; abstract also misprints Cg1067
T1 sequence (Q8NRY8 1-571): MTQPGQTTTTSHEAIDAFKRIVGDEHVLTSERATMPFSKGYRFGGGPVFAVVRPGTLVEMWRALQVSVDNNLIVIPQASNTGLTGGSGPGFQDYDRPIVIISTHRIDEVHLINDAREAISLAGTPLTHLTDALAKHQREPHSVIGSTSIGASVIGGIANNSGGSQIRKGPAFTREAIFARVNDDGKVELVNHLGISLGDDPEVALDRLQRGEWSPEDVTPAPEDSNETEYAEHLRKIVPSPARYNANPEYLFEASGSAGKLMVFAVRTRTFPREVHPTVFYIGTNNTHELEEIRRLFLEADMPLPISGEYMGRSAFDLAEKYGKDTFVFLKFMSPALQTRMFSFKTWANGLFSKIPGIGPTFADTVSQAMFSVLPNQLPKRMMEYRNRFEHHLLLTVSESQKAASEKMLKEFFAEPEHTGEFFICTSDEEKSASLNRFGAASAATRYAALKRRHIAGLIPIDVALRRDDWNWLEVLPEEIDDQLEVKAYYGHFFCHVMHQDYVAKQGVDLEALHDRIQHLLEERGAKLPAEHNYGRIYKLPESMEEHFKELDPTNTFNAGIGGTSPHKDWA
Description: absorption spectrum of purified protein ([…] and […] nm). The series is classed as binding. The note with it: bound cofactor, co-purified; non-covalent; identified from spectrum and FAD domain.

Substrate in the series “purified protein”: C[C@@H](O)C(=O)O
In words: purified protein. Particulars: 2,6-dichloroindophenol as electron acceptor, 30 °C, potassium phosphate, pH optimum 7.0, Discussion prints 0.62 mM.

The values that follow come from article PMC3022706 (BMC Microbiology, 2010).

With `Cc1cc2nc3c(=O)[nH]c(=O)nc-3n(C[C@H](O)[C@H](O)[C@H](O)COP(=O)(O)OP(=O)(O)OC[C@H]3O[C@@H](n4cnc5c(N)ncnc54)[C@H](O)[C@@H]3O)c2cc1C` [FAD], the “absorption spectrum of purified protein (375 and 445 nm)” value in series [1] is reported as “These results suggest that D-lactate dehydrogenase from C. glutamicum contains FAD as a bound cofactor”.

B1: Dld (Cg1027), quinone-dependent D-lactate dehydrogenase (Corynebacterium glutamicum ATCC 13032) (protein)
chain: T1 sequence (Q8NRY8 1-571)
As a reminder, the Km is the concentration of substrate that gives half-maximal velocity. Turning to B1, the Km in “purified protein” was 610 µM.
